Measured values as given in paper PMC2834666, “An enhancer peptide for membrane-disrupting antimicrobial peptides” (BMC Microbiology, 2010).
In brackets after ≈: the same amount, converted by molar mass. Bridge positions count the residues as written; N and C are the ends. Square brackets hold non-standard residues; d marks the D form. Peptide text beside a SMILES is read from it. * marks the point of attachment. X1 = CC[C@H](C)CCCCC(=O)*; Dab = NCC[C@H](N)C(=O)O

Columns and labels:
Format in all cases: cell-based
Escherichia coli JM109 = details: for MBC, NP4P-: absence of NP4P, 10 mM Tris/HCl pH 7.5, 2 h incubation, colony count
Procedure: Microbicidal assay was performed as previously described. […] The microbial suspension was mixed with antimicrobials in the presence or absense of NP4P. After 2 h incubation, the suspension was diluted 1,000 times and inoculated on to plates of IFO702 medium. The number of colonies were counted, and a plot of peptide concentration vs colony number was created.

[1] = tested on: Staphylococcus aureus IFO12732; test: microbe, parasite or virus in culture; details: 10 mM Tris/HCl pH 7.5, 2 h incubation, colony count; for MBC: Staphylococcus aureus, IFO12732
Procedure: (§1) Microbicidal assay was performed as previously described. Briefly, each microbial strain in the mid-exponential phase was suspended in 10 mM Tris/HCl, pH 7.5. The microbial suspension was mixed with antimicrobials in the presence or absense of NP4P. After 2 h incubation, the suspension was diluted 1,000 times and inoculated on to plates of IFO702 medium. The number of colonies were counted, and a plot of peptide concentration vs colony number was created.

[2] = tested on: Pseudomonas aeruginosa IFO3899; details: absence of NP4P; 10 mM Tris/HCl pH 7.5, 2 h incubation, colony count
Procedure: as §1

[3] = tested on: Serratia marcescens IFO3736; details: absence of NP4P; 10 mM Tris/HCl pH 7.5, 2 h incubation, colony count
Procedure: as §1

[4] = tested on: Salmonella typhimurium IFO13245; details: absence of NP4P; 10 mM Tris/HCl pH 7.5, 2 h incubation, colony count
Procedure: as §1

SMILES	MBC, NP4P- (Escherichia coli JM109) [µg/mL]	MBC, NP4P- ([1]; absence of NP4P) [µg/mL]	MBC ([1]; absence of NP4P) [µg/mL]	MBC ([1]; presence of 20 μg/mL NP4P) [µg/mL]	further results
CC[C@H](C)[C@H](N)C(=O)N[C@@H](CC(C)C)C(=O)N1CCC[C@H]1C(=O)N[C@@H](Cc1c[nH]c2ccccc12)C(=O)N[C@@H](CCCCN)C(=O)N[C@@H](Cc1c[nH]c2ccccc12)C(=O)N1CCC[C@H]1C(=O)N[C@@H](Cc1c[nH]c2ccccc12)C(=O)N[C@@H](Cc1c[nH]c2ccccc12)C(=O)N1CCC[C@H]1C(=O)N[C@@H](Cc1c[nH]c2ccccc12)C(=O)N[C@@H](CCCNC(=N)N)C(=O)N[C@@H](CCCNC(=N)N)C(N)=O [Indolicidin]	10 (≈ 5.25 µM)	10 (≈ 5.25 µM)	–	–	–
NC[C@H]1O[C@H](O[C@H]2[C@H](O)[C@@H](O[C@H]3O[C@H](CO)[C@@H](O)[C@H](N)[C@H]3O)[C@H](N)C[C@@H]2N)[C@H](O)[C@@H](O)[C@@H]1O [Kanamycin]	–	3 (≈ 6.19 µM)	–	–	MBC, NP4P+ ([1]; presence of 20 μg/mL NP4P): 3 µg/mL
CC[C@H](C)CCCCC(=O)N[C@@H](CCN)C(=O)N[C@H](C(=O)N[C@@H](CCN)C(=O)N[C@H]1CCNC(=O)[C@H]([C@@H](C)O)NC(=O)[C@H](CCN)NC(=O)[C@H](CCN)NC(=O)[C@H](CC(C)C)NC(=O)[C@@H](Cc2ccccc2)NC(=O)[C@H](CCN)NC1=O)[C@@H](C)O [Polymyxin B] (X1-[Dab]T[Dab][Dab][Dab][dF]L[Dab][Dab]T; lactam 4-C (inferred); N-terminus assumed)	3 (≈ 2.49 µM)	–	–	–	shift of bactericidal dose-effect curve to lower concentration (Escherichia coli JM109; in the presence of 100 μg/mL NP4P, 10 mM Tris-HCl, pH 7.4): ~10 times lower concentration; MBC, NP4P- [2]: 5 µg/mL (≈ 4.15 µM); MBC, NP4P- [3]: 5 µg/mL (≈ 4.15 µM); MBC, NP4P- [4]: 5 µg/mL (≈ 4.15 µM)
CCN1CCN(c2cc3c(cc2F)c(=O)c(C(=O)O)cn3C2CC2)CC1 [Enrofloxacin]	–	–	0.25 (≈ 0.696 µM)	0.25	–
CC1(C)S[C@@H]2[C@H](NC(=O)[C@H](N)c3ccccc3)C(=O)N2[C@H]1C(=O)O [Ampicillin]	–	–	250 (≈ 715 µM)	250	–
